Patent US20200216493A1, “ANTIMICROBIAL PEPTIDES” (FERRING B.V., priority 2016, published 2020)
Values after ≈ are worked out from the molar mass of the structure shown. Bridge positions count the residues as written; N and C are the ends. Square brackets hold non-standard residues; d marks the D form. Peptide text beside a SMILES is read from it. d(aIle) = CC[C@H](C)[C@@H](N)C(=O)O; dNMeF = CN[C@H](Cc1ccccc1)C(=O)O

What was measured:
[1] = test system: E.coli; format: cell-based, Escherichia coli; details: for MIC ratio Coli/Staph: ratio of E. coli MIC to S. aureus MIC
Procedure: (§1) This assay was used to determine the minimum concentration of a test compound (i.e., an antimicrobial peptide described herein) able to inhibit the growth of a bacterial strain of interest. This is a standard method for measuring and comparing the potency of peptide-based antibacterial agents (Steinberg et al., Antimicrobial Agents and Chemotherapy 1997, 41 (8) 1738 - 1742 and Wiegand et al., Nature Protocols 2008, 3, 163-175).
(§2) The MIC is reported in units of μg/mL.
(§3) Bacterial cultures were grown by inoculating Mueller-Hinton Broth (MHB) with 3 or 4 representative colony (typical size, color, and shape) from a bacterial strain grown on a LB agar plate. Inoculated liquid cultures were grown at 37° C. with moderate shaking (200-250 rpm) until bacteria produced a visibly turbid suspension. Bacterial inoculum was approximated by measuring the optical density at 600 nm (0D600) of the bacterial culture against a sterile MHB blank. Typically, OD600=0.10 corresponds to ˜1×10^8 cfu/mL for S.aureus and OD600 =0.15 corresponds to ˜1×10^8 cfu/mL for E.coli.
(§4) Test compounds were prepared as stock solutions in vehicle at a concentration 10 times the highest concentration to be tested for antibacterial activity (usually 320 μg/mL stock solutions). 2x serial dilutions in vehicle (at 10× the final test concentrations) of the test compounds were prepared from the test compound stock solutions in a non-binding 96 well plate.
(§5) In a sterile clear flat bottom 96 well plate, 15 μL of each test compound dilution was added to 135 μL of ˜5×10^5 cfu/mL bacterial culture. Each concentration was tested in duplicate. Each experiment contained positive control wells for bacterial growth (i.e., no test compound added to bacteria) and sterility controls wells (i.e., sterile MHB and no test compounds added). 96 well plates containing bacterial cultures and test compounds were incubated at 37° C. for 16-20 hours with shaking at 200 rpm.
(§6) After incubation, the MIC of each test compound was determined by measuring the OD600 of each well using a plate reader. Wells with OD600 >0.08 were considered to have bacterial growth and wells with OD600<0.08 were considered to have no bacterial growth. The lowest concentration of test agent able to inhibit bacterial growth (0D600<0.08 after 16-20 hours) was defined as the MIC.

[2] = test system: S.aureus; format: cell-based, Staphylococcus aureus
Procedure: as §1, §2, §3, §4, §5, §6

[3] = test system: C. difficile
[4] = test system: B. fragilis

| MIC E. coli [1] [µg/mL] | MIC ratio Coli/Staph [1] | MIC S. aureus [2] [µg/mL] | MIC C. difficile [3] [µg/mL] | MIC B. fragilis [4] [µg/mL] | Compound |
| --- | --- | --- | --- | --- | --- |
| 4 (≈ 3.29 µM) | 16 | 0.25 (≈ 0.206 µM) | 0.06 to 0.12 | >32 | CC[C@H](C)[C@H](NC(=O)[C@@H](Cc1ccccc1)NC)C(=O)N[C@@H](CO)C(=O)N[C@H](CCCCN)C(=O)N[C@@H](C(=O)N[C@H](C(=O)N[C@@H](CO)C(=O)N[C@H]1C(=O)N[C@@H](C)C(=O)N[C@@H](CCCCN)C(=O)N[C@@H]([C@@H](C)CC)C(=O)O[C@H]1C)[C@@H](C)CC)[C@@H](C)CC [Compound 14, H-D-MePhe-Ile-Ser-D-Lys-D-aIle-Ile-Ser-c(D-Thr-Ala-Lys-Ile)] (H-[dNMeF]IS[dK][d(aIle)]IS[dT]AKI; ester 8-C) |
| 16 (≈ 13.2 µM) | 64 | 0.25 (≈ 0.206 µM) | 0.12 (≈ 0.0986 µM) | >32 | CC[C@H](C)[C@H](NC(=O)[C@@H](Cc1ccccc1)NC)C(=O)N[C@@H](CO)C(=O)N[C@H](CCC(N)=O)C(=O)N[C@@H](C(=O)N[C@H](C(=O)N[C@@H](CO)C(=O)N[C@H]1C(=O)N[C@@H](C)C(=O)N[C@@H](CCCCN)C(=O)N[C@@H]([C@@H](C)CC)C(=O)O[C@H]1C)[C@@H](C)CC)[C@@H](C)CC [Lys10-teixobactin] |
